Source: US20220079966A1, “HYALURONAN SYNTHESIS INHIBITION FOR TREATING AUTOIMMUNE, INFLAMMATORY, FIBROTIC, OR PROLIFERATIVE DISEASES OR DISORDERS” (The Board of Trustees of the Leland Stanford Junior …, priority 2018, published 2022)

Tests used:
blood leukocytes = assay: Leukocyte 4-MU uptake in mice on oral 4-MU (flow cytometry, Pacific Blue channel); format: in vivo, C57Bl/6J mice; conditions: blood leukocyte subsets, days 0, 2, 7, 14
Excerpt: Next, the uptake of 4-MU by different leukocyte subsets was examined. To this end, mice were fed 4-MU and 4-MU signal was examined on blood leukocytes from representative animals at intervals of 0, 2, 7, and 14 days after the initiation of 4-MU treatment. […] Bold histograms depict signal in 4-MU treated mice, shaded histograms depict background Pacific Blue signal in untreated mice. Cell surface markers were stained to examine 4-MU uptake by multiple cell types, including CD4+ T-cells (CD3+CD4+), CD8+ T-cells (CD3+CD8+), B-cells (I-A/I-E+B220+) dendritic cells (DC; I-A/I-E+CD11c+), macrophages (Mc); I-A/I-E+CD11c−), neutrophils (Ly6G/C+CD14+) and monocytes (Ly6G/C-CD14+).
C57Bl/6J mice were treated with 4-MU and leukocytes from representative animals were isolated from the blood at baseline (before 4-MU treatment) and at intervals of 2, 7, and 14 days after the initiation of chow. […] To detect fluorescence emitted by 4-MU using flow cytometry on specific leukocyte subsets, peripheral blood red cells were lysed using Ammonium-Chloride-Potassium (ACK) buffer, and leukocytes were stained with the following fluorochrome-conjugated antibodies: BV650-CD3 (17-A2), BV785-CD4 (RM4-5), APC-CD11c (N418), PE-CD14 (Sa2-8), PE-Cy7-Ly-6G/C (RB6-8C5), PE-CyS. […] Samples were run on a BD™ LSRII flow cytometer (Beckon Dickinson) and data was analyzed using FlowJo software (TreeStar).

[1] = cited from earlier work
[2] = Chemical stability of 4-MUG in fasted state simulated gastric fluid; format: physicochemical; conditions: 100 μM, FaSSGF pH 1.6, 37° C., 0-120 minutes
Description: To determine the chemical stability of 4-MUG, its half-life (t1/2) was evaluated. 4-MUG was tested at a concentration of 100 μM. The internal standard (IS) was prepared at 50 ng/mL with tolbutamide in DMSO and a buffer solution was prepared of fasted state simulated gastric fluid (FaSSGF) at pH 1.6. The buffer was pre-warmed at 37° C. for 15 minutes, subsequently 4-MUG was added, and the solution was vortexed. Next, 30 μL of this reaction mixture was removed at each time point for analysis. The time points included 0 minutes, 15 minutes, 30 minutes, 60 minutes and 120 minutes. The reaction was stopped at the end of the experiment by adding IS solution. The samples were centrifuged at 4,000 rpm for 15 minutes at 4° C. 100 μL of the supernatant was mixed with distilled water for further liquid chromatography with tandem mass spectrometry (LC-MS/MS) analysis. The mass spectrometry detection was performed using a SCIEX® API 4500 Qtrap® (Sciex, Redwood City, Calif.). Each compound was analyzed by reverse phase high performance liquid chromatography (HPLC). The parameters calculated were the ratio of 4-MUG, the percent of 4-MUG remaining versus time, and the estimation of 4-MUG's t1/2.

human cell lines = assay: HA synthesis by human cell lines (unpublished data); format: cell-based; conditions: compared with parent drug 4-MU
CHO-HAS3 cells = assay: HA production by CHO-HAS3 cells engineered to overexpress HAS3; format: cell-based; conditions: 48 hours; non-hydrolyzable 4-MUG at comparable doses to 4-MU or conventional 4-MUG
Description: Samples were thawed and assayed for HA levels using a modified HA ELISA as previously described (Nagy N., et al., J. Clin. Invest. 2015; 125(10):3928-3940). Each sample was analyzed in triplicate with a mean value obtained per sample. For cell normalization, LI-COR CellTag™ 700 Stain was used according to the manufactures protocol.
To test whether 4-MUG has bioactivity independently of any possible conversion to 4-MU, a non-hydrolyzable version of 4-MUG was generated (FIG. 5A).

[3] = HPLC of 4-MU and metabolites in serum of mice fed 4-MU chow for two weeks; format: in vivo; conditions: mice fed 4-MU for two weeks
Excerpt: As a result of efficient glucuronidation of 4-MU in the liver and intestines by multiple UDP-glucuronosyltransferases (UGTs), the predominant form present systemically in mice on oral 4-MU chow is 4-MUG, as has been reported previously (Mulder G J, et al., Biochem Pharmacol. 1985; 34(8):1325-1329). For example, FIG. 1A illustrates molecular structures for 4-MU and its primary metabolites, 4-MUG and 4-MUS. […] N=3 animals per group. […] N=3 animals per group.

[4] = Conversion of 4-MUG into fluorescent 4-MU in medium (fluorescence plate reader); format: in vitro ADME; conditions: PBS with 10% FCS, monitored up to 72 hours
Description: Given the established activity of 4-MU leading to inhibition of HA synthesis, it seemed possible that the bioactivity of 4-MUG could be attributed to its hydrolysis into 4-MU. It is generally known that 4-MU is fluorescent while 4-MUG is not. In particular, 4-MU has an excitation wavelength of 380 nm and an emission wavelength of 454 nm in water.
Fluorescent values of 4-MUG were normalized to the 4-MU fluorescence. Referring to FIG. 2 B, 4-MU or 4-MUG was added to PBS with 10% FCS and the increase of fluorescence signal using a fluorescence plate reader was monitored at intervals up to 72 hours.

[5] = Water solubility (statement); format: physicochemical

Cc1cc(=O)oc2cc(O)ccc12 [4-MU, 4-methylumbelliferone]
time period of oral treatment required for leukocyte populations to take up 4-MU (blood leukocytes): 1-2 weeks | fraction of a single intravenous dose eliminated as the 4-MUG metabolite in urine ([1]; in humans, single intravenous dose of 4-MU): 93% | half-life ([1]; in humans): 28 min | share of 4-MU metabolism accounted for by glucuronidation into 4-MUG ([1]; in humans): over 90% | fraction of a given dose excreted unchanged in the urine ([1]; species not given): < 1% | systemic oral bioavailability ([1]; species not given): < 3%

Cc1cc(=O)oc2cc(O[C@@H]3O[C@H](C(=O)O)[C@@H](O)[C@H](O)[C@H]3O)ccc12 [4-MUG, 4-methylumbelliferone-glucuronide]
chemical stability [2]: stable | inhibition of HA synthesis by human cell lines (human cell lines): just as well as the parent drug | HA production by CHO-HAS3 cells (CHO-HAS3 cells): directly inhibits HA synthesis | median serum concentration of 4-MUG relative to parent compound 4-MU [3]: about 150 fold | time from which fluorescence (conversion to 4-MU) could be detected [4]: around 30 hours | water solubility [5]: water-soluble
